In ChEMBL document CHEMBL1201862, “PubChem BioAssay data set” (2004):
Activity calls are given as the source filed them. Rule as the data show it, for most assays here: actives have a measured IC50 and inactives only a lower limit.

Tests used:
[1] = molecular target: T1, Sentrin-specific protease 8 (Homo sapiens, UniProt Q96LD8); assay: inhibition of human SENP8 cleavage activity – biochemical, luminescence, SAR follow-up (AID 504501); format: functional
T1 sequence (Q96LD8 whole entry): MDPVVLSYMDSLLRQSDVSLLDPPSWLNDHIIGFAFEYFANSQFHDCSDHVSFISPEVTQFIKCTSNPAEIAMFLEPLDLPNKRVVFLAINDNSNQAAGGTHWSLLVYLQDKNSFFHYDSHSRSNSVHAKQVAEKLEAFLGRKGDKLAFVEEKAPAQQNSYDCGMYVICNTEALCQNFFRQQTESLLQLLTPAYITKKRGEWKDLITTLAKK

[2] = molecular target: T2, Sentrin-specific protease 6 (Homo sapiens, UniProt Q9GZR1); format: functional
T2 sequence (Q9GZR1 whole entry): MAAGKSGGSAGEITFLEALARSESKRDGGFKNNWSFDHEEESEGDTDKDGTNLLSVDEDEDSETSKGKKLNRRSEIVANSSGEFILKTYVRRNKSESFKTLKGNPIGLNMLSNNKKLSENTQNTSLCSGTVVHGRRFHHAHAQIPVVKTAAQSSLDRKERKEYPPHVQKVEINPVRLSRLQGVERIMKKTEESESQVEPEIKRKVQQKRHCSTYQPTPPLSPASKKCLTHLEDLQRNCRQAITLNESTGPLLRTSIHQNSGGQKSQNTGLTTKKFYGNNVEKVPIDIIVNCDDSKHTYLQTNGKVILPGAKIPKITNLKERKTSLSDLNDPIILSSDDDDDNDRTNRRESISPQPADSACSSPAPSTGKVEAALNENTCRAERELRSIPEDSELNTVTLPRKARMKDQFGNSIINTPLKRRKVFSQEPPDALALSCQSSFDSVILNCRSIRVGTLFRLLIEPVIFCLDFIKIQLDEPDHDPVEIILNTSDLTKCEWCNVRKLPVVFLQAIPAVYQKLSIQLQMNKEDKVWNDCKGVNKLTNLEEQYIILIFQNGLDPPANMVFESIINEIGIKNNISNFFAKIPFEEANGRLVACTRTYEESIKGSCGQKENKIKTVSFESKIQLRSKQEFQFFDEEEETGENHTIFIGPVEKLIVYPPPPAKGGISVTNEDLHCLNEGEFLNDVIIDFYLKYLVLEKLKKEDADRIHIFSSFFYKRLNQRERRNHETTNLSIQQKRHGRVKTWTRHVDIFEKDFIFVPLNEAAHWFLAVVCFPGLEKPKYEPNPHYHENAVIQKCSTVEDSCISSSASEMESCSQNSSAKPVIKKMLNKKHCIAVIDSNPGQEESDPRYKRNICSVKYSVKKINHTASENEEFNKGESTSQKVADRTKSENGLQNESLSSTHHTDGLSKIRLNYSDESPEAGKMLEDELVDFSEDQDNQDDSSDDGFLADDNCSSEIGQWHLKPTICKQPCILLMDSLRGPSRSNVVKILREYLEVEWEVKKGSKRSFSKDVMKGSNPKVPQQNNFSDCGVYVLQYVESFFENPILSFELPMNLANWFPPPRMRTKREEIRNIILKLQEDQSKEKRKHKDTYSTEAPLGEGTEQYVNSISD

[3] = molecular target: Tyrosyl-DNA phosphodiesterase 2 (Homo sapiens, UniProt O95551); assay: potency against TDP2 phosphodiesterase activity – biochemical, epi absorbance, IC50, dose response (AID 743297)
Tyrosyl-DNA phosphodiesterase 2, sequence (O95551 whole entry): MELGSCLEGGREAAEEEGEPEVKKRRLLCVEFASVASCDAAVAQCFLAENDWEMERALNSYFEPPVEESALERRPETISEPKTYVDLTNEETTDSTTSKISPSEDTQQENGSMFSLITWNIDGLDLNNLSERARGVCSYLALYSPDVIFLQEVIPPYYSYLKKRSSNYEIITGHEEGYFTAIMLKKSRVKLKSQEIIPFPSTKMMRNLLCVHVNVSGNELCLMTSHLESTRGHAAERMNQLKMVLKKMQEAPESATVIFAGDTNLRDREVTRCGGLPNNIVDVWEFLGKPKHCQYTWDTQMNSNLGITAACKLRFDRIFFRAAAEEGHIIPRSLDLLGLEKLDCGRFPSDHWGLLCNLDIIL

Protein RecA = molecular target: T3, Protein RecA (Mycobacterium tuberculosis, UniProt P9WHJ3); assay: Fluorescence Cell-Free Homogeneous Dose Retest to Identify Inhibitors of RecA-Intein Splicing Activity. [Related pubchem assays (depositor defined):AID2097, AID2223, AID489010, AID492950]; format: functional
T3 sequence (P9WHJ3 whole entry): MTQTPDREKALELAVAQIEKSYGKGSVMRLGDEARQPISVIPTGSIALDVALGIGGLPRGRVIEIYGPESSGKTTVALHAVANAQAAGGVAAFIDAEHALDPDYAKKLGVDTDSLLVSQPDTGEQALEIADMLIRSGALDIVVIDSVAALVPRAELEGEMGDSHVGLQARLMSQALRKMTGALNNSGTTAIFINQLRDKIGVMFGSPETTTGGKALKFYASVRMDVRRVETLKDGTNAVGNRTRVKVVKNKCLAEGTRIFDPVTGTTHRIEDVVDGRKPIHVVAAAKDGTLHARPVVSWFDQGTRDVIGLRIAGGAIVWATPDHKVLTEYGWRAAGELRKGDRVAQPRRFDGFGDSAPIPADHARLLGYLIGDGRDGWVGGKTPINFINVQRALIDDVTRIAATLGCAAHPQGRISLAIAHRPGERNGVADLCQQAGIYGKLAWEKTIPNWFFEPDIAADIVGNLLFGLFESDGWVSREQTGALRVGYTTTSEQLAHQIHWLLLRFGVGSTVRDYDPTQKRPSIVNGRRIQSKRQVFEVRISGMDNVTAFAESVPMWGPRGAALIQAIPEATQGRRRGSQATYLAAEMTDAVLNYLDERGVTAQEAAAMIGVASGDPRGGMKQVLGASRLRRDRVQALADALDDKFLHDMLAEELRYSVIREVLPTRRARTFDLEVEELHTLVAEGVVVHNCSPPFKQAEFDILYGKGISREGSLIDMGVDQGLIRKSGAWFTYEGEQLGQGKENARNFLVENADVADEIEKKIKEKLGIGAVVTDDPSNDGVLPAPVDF

[4] = molecular target: Ras and Rab interactor 1/Tyrosine-protein kinase ABL1 (Homo sapiens, UniProt P00519+Q13671); format: functional;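 also: biochemical TR-FRET dose-response test measuring inhibition of binding between Rin1 and Abl proteins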
Ras and Rab interactor 1/Tyrosine-protein kinase ABL1, sequence (P00519 whole entry): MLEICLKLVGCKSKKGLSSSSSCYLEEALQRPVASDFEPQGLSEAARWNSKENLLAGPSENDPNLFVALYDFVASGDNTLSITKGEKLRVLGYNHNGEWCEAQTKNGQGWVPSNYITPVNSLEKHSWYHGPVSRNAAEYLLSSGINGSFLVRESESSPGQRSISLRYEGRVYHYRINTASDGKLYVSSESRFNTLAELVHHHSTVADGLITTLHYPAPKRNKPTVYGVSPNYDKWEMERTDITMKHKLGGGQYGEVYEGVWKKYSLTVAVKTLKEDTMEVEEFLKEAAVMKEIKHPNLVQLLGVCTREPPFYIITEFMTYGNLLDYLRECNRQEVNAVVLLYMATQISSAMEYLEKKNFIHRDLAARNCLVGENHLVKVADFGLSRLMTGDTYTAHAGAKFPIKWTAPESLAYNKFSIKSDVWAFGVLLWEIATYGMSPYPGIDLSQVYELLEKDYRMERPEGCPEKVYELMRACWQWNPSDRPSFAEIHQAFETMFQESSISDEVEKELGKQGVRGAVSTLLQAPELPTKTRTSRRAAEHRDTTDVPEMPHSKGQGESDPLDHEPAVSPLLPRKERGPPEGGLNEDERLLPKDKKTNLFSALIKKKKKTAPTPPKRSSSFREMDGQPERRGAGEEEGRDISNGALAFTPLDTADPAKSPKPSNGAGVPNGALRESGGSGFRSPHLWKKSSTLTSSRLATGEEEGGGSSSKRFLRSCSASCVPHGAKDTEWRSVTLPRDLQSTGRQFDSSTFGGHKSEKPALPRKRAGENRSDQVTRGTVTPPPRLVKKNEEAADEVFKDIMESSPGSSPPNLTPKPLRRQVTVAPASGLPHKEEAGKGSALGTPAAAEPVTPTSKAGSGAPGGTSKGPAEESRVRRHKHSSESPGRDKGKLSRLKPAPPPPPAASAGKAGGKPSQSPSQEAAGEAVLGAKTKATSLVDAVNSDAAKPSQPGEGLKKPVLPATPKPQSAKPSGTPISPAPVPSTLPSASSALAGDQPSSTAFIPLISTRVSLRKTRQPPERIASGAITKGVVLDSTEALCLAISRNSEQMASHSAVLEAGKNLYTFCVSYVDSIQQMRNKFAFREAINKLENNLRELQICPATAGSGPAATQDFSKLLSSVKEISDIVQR
Ras and Rab interactor 1/Tyrosine-protein kinase ABL1, sequence (Q13671 whole entry): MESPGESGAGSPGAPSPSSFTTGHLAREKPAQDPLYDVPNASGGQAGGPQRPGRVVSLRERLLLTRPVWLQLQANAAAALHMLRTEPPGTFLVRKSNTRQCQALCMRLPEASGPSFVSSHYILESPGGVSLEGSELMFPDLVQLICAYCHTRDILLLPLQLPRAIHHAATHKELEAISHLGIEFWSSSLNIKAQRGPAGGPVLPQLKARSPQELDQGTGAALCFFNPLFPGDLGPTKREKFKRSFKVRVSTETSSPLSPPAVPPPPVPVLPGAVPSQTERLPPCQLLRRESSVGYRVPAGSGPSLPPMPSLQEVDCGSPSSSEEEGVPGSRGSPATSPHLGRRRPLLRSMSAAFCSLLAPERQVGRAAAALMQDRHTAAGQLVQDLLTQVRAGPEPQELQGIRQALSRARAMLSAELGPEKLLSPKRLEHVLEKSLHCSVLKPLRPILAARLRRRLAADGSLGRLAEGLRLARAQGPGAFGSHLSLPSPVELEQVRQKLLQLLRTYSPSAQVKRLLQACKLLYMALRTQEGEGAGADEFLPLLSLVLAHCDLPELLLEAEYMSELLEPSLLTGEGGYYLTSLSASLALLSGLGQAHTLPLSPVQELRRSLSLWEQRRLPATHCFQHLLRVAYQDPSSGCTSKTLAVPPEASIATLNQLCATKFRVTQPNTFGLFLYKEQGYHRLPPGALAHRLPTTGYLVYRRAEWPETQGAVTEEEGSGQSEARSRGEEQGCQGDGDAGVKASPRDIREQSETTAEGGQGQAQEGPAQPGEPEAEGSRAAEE

[5] = molecular target: T2, Sentrin-specific protease 6; assay: SAR Analysis of small molecule inhibitors of Sentrin-specific protease 6 (SENP6) using a Luminescent assay. [Related pubchem assays (depositor defined):AID2582, AID2599]; format: functional
Caspase-3 = molecular target: T4, Caspase-3 (Homo sapiens, UniProt P42574); assay: SAR Analysis of small molecule inhibitors of Sentrin-specific proteases (SENPs) using a Caspase-3 Selectivity assay. [Related pubchem assays (depositor defined):AID2540, AID2599, AID434973, AID489001]; format: functional
T4 sequence (P42574 whole entry): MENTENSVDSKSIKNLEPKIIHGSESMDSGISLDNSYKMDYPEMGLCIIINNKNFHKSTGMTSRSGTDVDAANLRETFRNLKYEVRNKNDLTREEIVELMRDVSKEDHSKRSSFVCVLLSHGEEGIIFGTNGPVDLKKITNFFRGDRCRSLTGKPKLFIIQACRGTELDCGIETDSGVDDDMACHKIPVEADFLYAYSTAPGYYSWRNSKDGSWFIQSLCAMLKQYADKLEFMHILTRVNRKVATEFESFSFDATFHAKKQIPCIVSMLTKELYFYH

O=C(NN=c1c(=O)c2ccccc2c1=O)c1ccccc1
IC50 [1]: 19.8 µM (active)
IC50 [2]: 3.47 µM (active)
IC50 [3]: 5.36 µM (active)
EC50 (Protein RecA): 4.83 µM (active)
IC50 [4]: > 73.5 µM (inactive)
IC50 [5]: 5.31 µM (active)
IC50 (Caspase-3): 51.8 µM (active)
